Entries after “also recorded” stand apart in the source; their conditions may differ. Read-outs that look alike come from different tables or passages of the source. Bridge positions count the residues as written; N and C are the ends. Peptide text beside a SMILES is read from it.
Experiments:
trypsin = tested on: trypsin
Description: Human prolactin releasing peptide (hPRP) was used to show a non-ICK example which contains evenly spaced multiple enzyme cleavage sites. […] To mimic gastric degradation of peptides, 10 μL 100 ng/μL pepsin was mixed with 50 μL 100 ng/μL peptides in 1.5 mL tubes containing 20 μL 1 M glycine (pH2.0) and 20 μL distilled water. To study intestinal degradation of peptides, 10 μL 100 ng/μL trypsin was mixed with 50 μL 100 ng/μL peptides in 1.5 mL tubes containing 10 μL 500 mM Tris-HCl (pH8.0) and 30 μL distilled water; 10 μL 100 ng/μL chymotrypsin was mixed with 50 μL 100 ng/μL peptides in 1.5 mL tubes containing 10 μL 500 mM Tris-HCl (pH8.0), 10 μL 100 mM CaCl2, and 20 μL distilled water; 10 μL 100 ng/μL elastase was mixed with each 50 μL 100 ng/μL peptide in 1.5 mL tube containing 10 μL 500 mM Tris-HCl (pH8.0), 10 μL 100 mM KCl, and 20 μL distilled water. […]
Denatured samples were separated by SDS-PAGE using SuperSep Ace 15–20% tricine gel (Wako, Osaka, Japan) at 200 V for 1 hour. […] Detected bands were digitized by an image scanner and quantified with Image Studio Digits (LI-COR Biosciences, NE, USA).
Measurements were converted to the rate of degradation compared to the undegraded values. […] Statistical significance was determined by Tukey-Kramer test and P values of <0.05 were considered significant.

elastase = elastase (Sus scrofa, UniProt P00772); assay: in vitro
Description: (§1) Human prolactin releasing peptide (hPRP) was used to show a non-ICK example which contains evenly spaced multiple enzyme cleavage sites. […] To mimic gastric degradation of peptides, 10 μL 100 ng/μL pepsin was mixed with 50 μL 100 ng/μL peptides in 1.5 mL tubes containing 20 μL 1 M glycine (pH2.0) and 20 μL distilled water. To study intestinal degradation of peptides, 10 μL 100 ng/μL trypsin was mixed with 50 μL 100 ng/μL peptides in 1.5 mL tubes containing 10 μL 500 mM Tris-HCl (pH8.0) and 30 μL distilled water; 10 μL 100 ng/μL chymotrypsin was mixed with 50 μL 100 ng/μL peptides in 1.5 mL tubes containing 10 μL 500 mM Tris-HCl (pH8.0), 10 μL 100 mM CaCl2, and 20 μL distilled water; 10 μL 100 ng/μL elastase was mixed with each 50 μL 100 ng/μL peptide in 1.5 mL tube containing 10 μL 500 mM Tris-HCl (pH8.0), 10 μL 100 mM KCl, and 20 μL distilled water. Mixtures of peptides and enzymes were incubated at 37°C for 1–4 hours, and 10 μL aliquots was set aside every 1 hour and placed on ice. 5 μL tricine sample buffer was immediately added to the aliquots and denatured at 100°C for 5 minutes to stop digestion.
(§2) Denatured samples were separated by SDS-PAGE using SuperSep Ace 15–20% tricine gel (Wako, Osaka, Japan) at 200 V for 1 hour. Coomassie Brilliant Blue staining of the gel was performed with e-Stain 2.0 Protein Staining System using eStain Protein Staining Pad (GenScript, NJ, USA). Detected bands were digitized by an image scanner and quantified with Image Studio Digits (LI-COR Biosciences, NE, USA).
(§3) Measurements were converted to the rate of degradation compared to the undegraded values. Experiments were repeated in triplicate and results are indicated as means ± SEM. Statistical significance was determined by Tukey-Kramer test and P values of <0.05 were considered significant.

α-chymotrypsin = α-chymotrypsin (Bos taurus, UniProt P00766); assay: in vitro; conditions: pH 8
Description: as §1, §2, §3

in vitro = conditions: isolated enzyme elastase, pH 8
Description: as §1, §2, §3

[1] = In vitro ProTx-II degradation in rat blood plasma; assay type: in vitro ADME; conditions: 1 μg/mL in rat (male SD) blood plasma, 37°C, 24 hours, aliquots at 0, 2, 4, 8, 24 hours; LC-MS/MS; mean of n = 3
Description: To observe peptide degradation in vitro, blood was extracted from three 8-week-old male SD rats after anesthesia with isoflurane inhalation and the plasma was separated by centrifugation at 1,850 g for 10 minutes at 4°C. Plasma was stored on ice and used within the day of the experiment. ProTx-II was added to the plasma to make 1 μg/mL mixture and incubated at 37°C for 24 hours, withdrawing 250 μL aliquots at 0, 2, 4, 8, and 24 hours. Samples were kept at −25°C away from light until analysis.
(§4) For sample preparation, 100 μL plasma was mixed with 20 μL 50% methanol and 200 μL 4% phosphoric acid. Whole sample mixture was added to the Oasis HLB 1 cc/10 mg extraction cartridge (Waters) equilibrated with 1 mL methanol and 1 mL distilled water. The column was washed with 1 mL 5% methanol and eluted with 1 mL methanol. The elute was dried under nitrogen flow and dissolved in 100 μL solvent A/B (30% : 70%, v/v) for LC-MS/MS. 10 μL sample was analyzed by a Waters LC-MS/MS unit; ACQUITY UPLC BEH HILIC, 1.7 μm, 2.1 mm I.D. × 100 mm (Milford, MA) was used at a flow rate of 0.3 mL/min by linear gradient elution (solvent A : solvent B = 30% : 70%, v/v, solvent A: 0.1% TFA, solvent B: acetonitrile) using electrospray ionization for Xevo TQ MS (Waters, MA, USA).

[2] = In vivo ProTx-II clearance from circulation; conditions: rat
Description: To observe ProTx-II concentration in circulation blood in vivo, three nonfasted male rats were injected with 0.1 mg/mL/kg of ProTx-II from the femoral vein under isoflurane anesthesia. 450 μL blood samples were taken from the tail vein at 0.083 (5 min), 0.25, 0.5, 1, 2, 4, 8, and 24 hours after the injection using Pasteur pipettes coated with heparin sodium. Plasma was obtained by centrifugation at 10,000 g for 3 minutes at 4°C and stored at −25°C protected from light until analysis. Animal experiments were conducted by Nemoto Science Co., Ltd. (Ibaraki, Japan) in accordance with the guideline of the animal experiment ethics committee (authorization number: 14-0024) and under approval of animal experiment ethics committee of AIST (authorization number: 10150125-A-20131029-001).
as §4

rats = tested on: rats; parameters: method as in PMID 18728100; conditions: cited from earlier work

Chain of elastase (P00772 27-266): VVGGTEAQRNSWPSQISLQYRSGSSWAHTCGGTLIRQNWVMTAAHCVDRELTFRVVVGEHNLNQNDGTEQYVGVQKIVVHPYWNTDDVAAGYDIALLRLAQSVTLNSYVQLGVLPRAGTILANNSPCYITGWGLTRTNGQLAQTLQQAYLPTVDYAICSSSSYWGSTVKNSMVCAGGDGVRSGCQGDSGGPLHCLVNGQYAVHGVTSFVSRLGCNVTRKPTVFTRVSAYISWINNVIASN

Structure (SMILES): CC(C)C[C@@H]1NC(=O)[C@H](Cc2c[nH]c3ccccc23)NC(=O)[C@H](Cc2ccc(O)cc2)NC(=O)[C@H](CCCNC(=N)N)NC(=O)[C@@H](NC(=O)[C@@H](N)CCC(=O)O)CSSC[C@@H]2NC(=O)[C@@H]3CSSC[C@@H](C(=O)N[C@H](C(=O)N[C@@H](Cc4c[nH]c5ccccc45)C(=O)N[C@@H](CC(=O)O)C(=O)NCC(=O)N[C@H](C(=O)N[C@@H](Cc4ccccc4)C(=O)N[C@@H](CO)C(=O)O)[C@@H](C)O)C(C)C)NC(=O)[C@H](Cc4c[nH]c5ccccc45)NC(=O)CNC(=O)[C@H](Cc4c[nH]cn4)NC(=O)[C@H](CCCNC(=N)N)NC(=O)[C@H](CCCNC(=N)N)NC(=O)[C@H](CO)NC(=O)[C@H](CSSC[C@H](NC(=O)CNC(=O)CNC1=O)C(=O)N[C@@H](CO)C(=O)N[C@@H](C)C(=O)NCC(=O)N[C@@H](CCC(N)=O)C(=O)N[C@@H]([C@@H](C)O)C(=O)N3)NC(=O)[C@H](C(C)C)NC(=O)[C@H](CC(C)C)NC(=O)[C@H](Cc1c[nH]cn1)NC(=O)[C@H](CCCCN)NC2=O [ProTx-I]
- digestion by trypsin within 1-hour incubation (in words) (trypsin; pH 8): almost completely digested
- remaining at 4 h (elastase; isolated enzyme elastase, pH 8): 22%
- degradation by elastase, overall result in words (elastase; pH 8): degraded
- degradation by chymotrypsin within 1 hour (in words) (α-chymotrypsin): completely degraded

Structure (SMILES): CC[C@H](C)[C@H](NC(=O)CNC(=O)[C@H](CCCNC(=N)N)NC(=O)[C@H](CO)NC(=O)[C@H](C)NC(=O)[C@H](Cc1ccc(O)cc1)NC(=O)[C@H](Cc1c[nH]c2ccccc12)NC(=O)[C@H](C)NC(=O)[C@@H]1CCCN1C(=O)[C@H](CC(N)=O)NC(=O)[C@@H](NC(=O)[C@H](CC(=O)O)NC(=O)[C@@H]1CCCN1C(=O)[C@@H](NC(=O)[C@H](CCCNC(=N)N)NC(=O)[C@@H](NC(=O)[C@H](CCC(=O)O)NC(=O)[C@H](CCSC)NC(=O)[C@H](CO)NC(=O)[C@H](Cc1c[nH]cn1)NC(=O)[C@H](CCCNC(=N)N)NC(=O)[C@H](Cc1c[nH]cn1)NC(=O)[C@@H](NC(=O)[C@H](CCCNC(=N)N)NC(=O)[C@@H](N)CO)[C@@H](C)O)[C@@H](C)CC)[C@@H](C)O)[C@@H](C)CC)C(=O)N[C@@H](CCCNC(=N)N)C(=O)N1CCC[C@H]1C(=O)N[C@H](C(=O)NCC(=O)N[C@@H](CCCNC(=N)N)C(=O)N[C@@H](Cc1ccccc1)C(N)=O)C(C)C [hPRP, Human prolactin-releasing peptide]
- digestion by trypsin within 1-hour incubation (in words) (trypsin; 10 μL 100 ng/μL trypsin + 50 μL 100 ng/μL peptide, Tris-HCl pH8.0, 37°C, 1 hour, SDS-PAGE, CBB staining, n = 3): almost completely digested
- degradation by elastase, overall result in words (elastase; elastase, pH8.0, 37°C, up to 4 hours, SDS-PAGE, CBB staining, mean of n = 3): eventually digested all
- degradation by chymotrypsin within 1 hour (in words) (α-chymotrypsin): completely degraded

Structure (SMILES): CC(C)C[C@@H]1NC(=O)[C@@H](NC(=O)CN)CSSC[C@@H]2NC(=O)[C@@H]3CSSC[C@@H](C(=O)N[C@@H](CC(N)=O)C(=O)N[C@@H](Cc4ccccc4)C(=O)N[C@@H](CO)C(=O)N[C@@H](Cc4ccccc4)C(N)=O)NC(=O)[C@H](CC(C)C)NC(=O)[C@H](CCCCN)NC(=O)[C@H](Cc4ccccc4)NC(=O)[C@H](CC(C)C)NC(=O)[C@H](CCCCN)NC(=O)[C@H](CO)NC(=O)[C@H](CSSC[C@H](NC(=O)[C@H](CCCCN)NC(=O)[C@H](Cc4c[nH]c5ccccc45)NC(=O)[C@H](Cc4c[nH]c5ccccc45)NC(=O)[C@H](Cc4ccccc4)NC(=O)[C@H](CCC(=O)O)NC1=O)C(=O)N[C@@H](CC(N)=O)C(=O)N1CCC[C@H]1C(=O)N[C@@H](CC(N)=O)C(=O)N[C@@H](CC(=O)O)C(=O)N[C@@H](CC(=O)O)C(=O)N[C@@H](CCCCN)C(=O)N3)NC(=O)[C@H](CCCCN)NC(=O)[C@H](CC(C)C)NC(=O)[C@H](CCCCN)NC(=O)[C@@H]1CCCN1C(=O)[C@H](CCCNC(=N)N)NC2=O [GsMTx-4] (H-GCLEFWWKCNPNDDKCCRPKLKCSKLFKLCNFSF-NH2; disulfide 2-17, 9-23, 16-30)
- remaining at 4 h (in vitro): > 84%
- degradation by chymotrypsin, overall result in words (α-chymotrypsin): not degraded at all

Structure (SMILES): CSCC[C@@H]1NC(=O)CNC(=O)[C@H](CCC(=O)O)NC(=O)[C@@H]2CSSC[C@H](NC(=O)[C@@H](N)Cc3ccc(O)cc3)C(=O)N[C@@H](CCC(N)=O)C(=O)N[C@@H](CCCCN)C(=O)N[C@@H](Cc3c[nH]c4ccccc34)C(=O)N[C@@H](CCSC)C(=O)N[C@@H](Cc3c[nH]c4ccccc34)C(=O)N[C@@H]([C@@H](C)O)C(=O)N[C@H]3CSSC[C@H](NC(=O)[C@H](C(C)C)NC1=O)C(=O)N[C@@H](CCCNC(=N)N)C(=O)N[C@@H](CC(C)C)C(=O)N[C@@H](Cc1c[nH]c4ccccc14)C(=O)N[C@H](C(=O)N[C@@H](CCCCN)C(=O)N[C@@H](CCCCN)C(=O)N[C@@H](CCCCN)C(=O)N[C@@H](CC(C)C)C(=O)N[C@@H](Cc1c[nH]c4ccccc14)C(=O)O)CSSC[C@H](NC(=O)[C@H](CCCCN)NC(=O)[C@H](CCCNC(=N)N)NC(=O)[C@H](CCC(=O)O)NC(=O)[C@H](CO)NC(=O)[C@H](CC(=O)O)NC3=O)C(=O)N2 [ProTx-II]
- peptide remaining undigested with elastase at 4 hours (elastase; elastase, Tris-HCl pH8.0, KCl, 37°C, 4 hours, SDS-PAGE, CBB staining, band quantification, mean of n = 3): over 84%
- remaining at 4 h (α-chymotrypsin; isolated enzyme chymotrypsin): 86%
- degradation in rat blood plasma in vitro (in words) [1]: not degraded at all; also recorded: No ProTx-II degradation was observed
- level at 8 h ([2]; male, plasma, iv, 0.1 mg/mL/kg into the femoral vein, 8 hours after administration, LC-MS/MS, n = 3, read-out: ProTx-II concentration in circulation blood at 8 hours (detection limit)): < 30 ng/mL
- time for concentration to drop to the detection limit ([2]; 0.1 mg/mL/kg into the femoral vein, detection limit 30.0 ng/mL, LC-MS/MS, n = 3): ≤ 8 h
- concentration in circulation corresponding to the detection limit of 30 ng/mL ([2]; 8 hr, molar conversion of the detection limit): 7.8 nM
- mortal plasma concentration (rats; 1 mg/kg dosage): 3 µM
- dosage reported to be lethal in rats (rats): 1 mg/kg
